Measurements taken from patent US6352958B1, “Cycloimido-substituted benzofused heterocyclic herbicides” (FMC Corporation, priority 1997, dated 2002).

Assays:
Type in all cases: in vivo
[1] = test system: common chickweed (Stellaria media); test: Postemergence herbicidal activity, chickweed; details: rate of application 0.3 Kg/Ha, rated after 12-17 days
[2] = test system: Johnsongrass (Sorghum halepense); test: Postemergence herbicidal activity, johnsongrass; details: rate of application 0.3 Kg/Ha, rated after 12-17 days
[3] = test system: blackgrass (Aloepecurus myosuroides); test: Preemergence herbicidal activity, blackgrass; details: Rate of Application 0.3 Kg/Ha, examined after 12-17 days
[4] = test system: wheat (Triticum aestivum var. Lew); test: Postemergence herbicidal activity, wheat; details: rate of application 0.3 Kg/Ha, rated after 12-17 days
[5] = test system: blackgrass (Aloepecurus myosuroides); test: Postemergence herbicidal activity, blackgrass; details: rate of application 0.3 Kg/Ha, rated after 12-17 days
[6] = test system: common cocklebur (Xanthium strumarium L.); test: Preemergence herbicidal activity, cocklebur; details: Rate of Application 0.3 Kg/Ha, examined after 12-17 days
[7] = test system: velvetleaf (Abutilon theophrasti); test: Postemergence herbicidal activity, velvetleaf; details: rate of application 0.3 Kg/Ha, rated after 12-17 days
[8] = test system: morningglory (Ipomea lacunosa or Ipomea hederacea); test: Postemergence herbicidal activity, morningglory; details: rate of application 0.3 Kg/Ha, rated after 12-17 days
[9] = test system: soybean (Glycine max var. Winchester); test: Postemergence herbicidal activity, soybean; details: rate of application 0.3 Kg/Ha, rated after 12-17 days
[10] = test system: field corn (Zea mays var. Pioneer 3732); test: Postemergence herbicidal activity, corn; details: rate of application 0.3 Kg/Ha, rated after 12-17 days
[11] = test system: morningglory (Ipomea lacunosa or Ipomea hederacea); test: Preemergence herbicidal activity, morningglory; details: Rate of Application 0.3 Kg/Ha, examined after 12-17 days
[12] = test system: field corn (Zea mays var. Pioneer 3732); test: Preemergence herbicidal activity, corn; details: Rate of Application 0.3 Kg/Ha, examined after 12-17 days
[13] = test system: Johnsongrass (Sorghum halepense); test: Preemergence herbicidal activity, johnsongrass; details: Rate of Application 0.3 Kg/Ha, examined after 12-17 days
[14] = test system: green foxtail (Setaria viridis); test: Postemergence herbicidal activity, green foxtail; details: rate of application 0.3 Kg/Ha, rated after 12-17 days
[15] = test system: common chickweed (Stellaria media); test: Preemergence herbicidal activity, chickweed; details: Rate of Application 0.3 Kg/Ha, examined after 12-17 days
[16] = test system: soybean (Glycine max var. Winchester); test: Preemergence herbicidal activity, soybean; details: Rate of Application 0.3 Kg/Ha, examined after 12-17 days
[17] = test system: velvetleaf (Abutilon theophrasti); test: Preemergence herbicidal activity, velvetleaf; details: Rate of Application 0.3 Kg/Ha, examined after 12-17 days
[18] = test system: green foxtail (Setaria viridis); test: Preemergence herbicidal activity, green foxtail; details: Rate of Application 0.3 Kg/Ha, examined after 12-17 days
[19] = test system: wheat (Triticum aestivum var. Lew); test: Preemergence herbicidal activity, wheat; details: Rate of Application 0.3 Kg/Ha, examined after 12-17 days
[20] = test system: common cocklebur (Xanthium strumarium L.); test: Postemergence herbicidal activity, cocklebur; details: rate of application 0.3 Kg/Ha, rated after 12-17 days

Structure (SMILES)	Postemergence herbicidal activity (% control) STEME [1]	Postemergence herbicidal activity (% control) SORHA [2]	PREEMERGENCE HERBICIDAL ACTIVITY (% CONTROL) ALOMY [3]	Postemergence herbicidal activity (% control) WHT [4]	Postemergence herbicidal activity (% control) ALOMY [5]	PREEMERGENCE HERBICIDAL ACTIVITY (% CONTROL) XANPE [6]	Postemergence herbicidal activity (% control) ABUTH [7]	Postemergence herbicidal activity (% control) IPOSS [8]	Postemergence herbicidal activity (% control) SOY [9]	Postemergence herbicidal activity (% control) CRN [10]	PREEMERGENCE HERBICIDAL ACTIVITY (% CONTROL) IPOSS [11]	PREEMERGENCE HERBICIDAL ACTIVITY (% CONTROL) CRN [12]	PREEMERGENCE HERBICIDAL ACTIVITY (% CONTROL) SORHA [13]	Postemergence herbicidal activity (% control) SETVI [14]	PREEMERGENCE HERBICIDAL ACTIVITY (% CONTROL) STEME [15]	PREEMERGENCE HERBICIDAL ACTIVITY (% CONTROL) SOY [16]	PREEMERGENCE HERBICIDAL ACTIVITY (% CONTROL) ABUTH [17]	PREEMERGENCE HERBICIDAL ACTIVITY (% CONTROL) SETVI [18]	PREEMERGENCE HERBICIDAL ACTIVITY (% CONTROL) WHT [19]	further results
CC(C)Oc1nc2c(-n3c(=O)cc(C(F)(F)F)n(C)c3=O)c(F)cc(Br)c2o1 [Compound 107]	100%	100%	75%	40%	90%	40%	100%	100%	95%	100%	100%	90%	100%	100%	100%	80%	100%	100%	60%	–
C=C(C)c1cc2c(Cl)cc(F)c(-n3c(=O)cc(C(F)(F)F)n(C)c3=O)c2o1 [Compound 231]	100%	100%	90%	70%	100%	100%	100%	100%	100%	100%	100%	100%	100%	100%	100%	100%	100%	100%	80%	–
CC(OC(=O)NCc1ccccc1)c1cc2c(Cl)cc(F)c(-n3c(=O)cc(C(F)(F)F)n(C)c3=O)c2o1 (stereo not shown) [Compound 250]	80%	100%	60%	50%	40%	100%	100%	100%	95%	80%	100%	50%	70%	100%	–	80%	100%	100%	40%	Postemergence herbicidal activity (% control) XANPE [20]: 100%
Cn1c(C(F)(F)F)cc(=O)n(-c2c(F)cc(Cl)c3[nH]cnc23)c1=O [Compound 362]	100%	100%	100%	100%	100%	100%	100%	100%	100%	100%	100%	100%	100%	100%	100%	100%	100%	100%	100%	–
Cn1c(C(F)(F)F)cc(=O)n(-c2c(F)cc(Cl)c3[nH]c(C(F)(F)F)nc23)c1=O [Compound 365, 3-(4-CHLORO-6-FLUORO-2-TRIFLUOROMETHYLBENZIMIDAZOL-7-YL)-1-METHYL-6-TRIFLUOROMETHYL-2,4(1H,3H)-PYRIMIDINEDIONE]	–	–	–	–	–	–	–	–	–	–	–	–	–	–	–	–	–	–	–	inhibition at 300 g/ha ([1]; Stellaria media, post-emergence, read-out: Postemergence herbicidal activity (% control) STEME): 100%; inhibition at 300 g/ha ([2]; Sorghum halepense, post-emergence, read-out: Postemergence herbicidal activity (% control) SORHA): 30%; inhibition at 300 g/ha ([3]; Alopecurus myosuroides, pre-emergence, read-out: PREEMERGENCE HERBICIDAL ACTIVITY (% CONTROL) ALOMY): 60%; inhibition at 300 g/ha ([4]; Triticum aestivum, post-emergence, read-out: Postemergence herbicidal activity (% control) WHT): 40%; inhibition at 300 g/ha ([5]; Alopecurus myosuroides, post-emergence, read-out: Postemergence herbicidal activity (% control) ALOMY): 70%; inhibition at 300 g/ha ([6]; Xanthium strumarium, pre-emergence, read-out: PREEMERGENCE HERBICIDAL ACTIVITY (% CONTROL) XANPE): 100%; inhibition at 300 g/ha ([7]; Abutilon theophrasti, post-emergence, read-out: Postemergence herbicidal activity (% control) ABUTH): 100%; inhibition at 300 g/ha ([8]; Ipomoea, post-emergence, read-out: Postemergence herbicidal activity (% control) IPOSS): 100%; inhibition at 300 g/ha ([9]; Glycine max, post-emergence, read-out: Postemergence herbicidal activity (% control) SOY): 100%; inhibition at 300 g/ha ([10]; Zea mays, post-emergence, read-out: Postemergence herbicidal activity (% control) CRN): 70%; inhibition at 300 g/ha ([11]; Ipomoea, pre-emergence, read-out: PREEMERGENCE HERBICIDAL ACTIVITY (% CONTROL) IPOSS): 100%; inhibition at 300 g/ha ([12]; Zea mays, pre-emergence, read-out: PREEMERGENCE HERBICIDAL ACTIVITY (% CONTROL) CRN): 30%; inhibition at 300 g/ha ([13]; Sorghum halepense, pre-emergence, read-out: PREEMERGENCE HERBICIDAL ACTIVITY (% CONTROL) SORHA): 60%; inhibition at 300 g/ha ([14]; Setaria viridis, post-emergence, read-out: Postemergence herbicidal activity (% control) SETVI): 80%; inhibition at 300 g/ha ([15]; Stellaria media, pre-emergence, read-out: PREEMERGENCE HERBICIDAL ACTIVITY (% CONTROL) STEME): 100%; inhibition at 300 g/ha ([17]; Abutilon theophrasti, pre-emergence, read-out: PREEMERGENCE HERBICIDAL ACTIVITY (% CONTROL) ABUTH): 100%; inhibition at 300 g/ha ([18]; Setaria viridis, pre-emergence, read-out: PREEMERGENCE HERBICIDAL ACTIVITY (% CONTROL) SETVI): 75%; inhibition at 300 g/ha ([19]; Triticum aestivum, pre-emergence, read-out: PREEMERGENCE HERBICIDAL ACTIVITY (% CONTROL) WHT): 30%
